Measurements taken from paper PMC10151467, “Elucidating the origins of phycocyanobilin biosynthesis and phycobiliproteins” (Proceedings of the National Academy of Sciences of the …, 2023).

Tests used:
POZ53557 (pre-1 FDBR) = target: T1, POZ53557 (pre-1 FDBR) (Methylovulum psychrotolerans, UniProt A0A2S5CS30); assay: coexpression in E. coli with HO and Cph1 reporter; bilin identified on reporter; assay type: cell-based; details: E. coli coexpression with HO POZ53545; inefficient reduction to PΦB
T1 construct: gene pcyA; replaces alt-PcyA in plasmid Spam-545/alt557, coexpressed in E. coli with HO and Cph1 reporter; not purified
T1 sequence (A0A2S5CS30 1-228): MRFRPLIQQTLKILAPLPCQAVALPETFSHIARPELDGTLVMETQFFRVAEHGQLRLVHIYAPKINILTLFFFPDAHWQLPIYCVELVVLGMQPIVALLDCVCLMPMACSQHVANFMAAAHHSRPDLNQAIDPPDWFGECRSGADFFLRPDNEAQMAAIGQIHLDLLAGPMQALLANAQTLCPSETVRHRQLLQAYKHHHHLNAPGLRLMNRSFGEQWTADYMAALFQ

CAP_1521 (BBAG-2) = target: T2, CAP_1521 (BBAG-2) (Chondromyces apiculatus, UniProt A0A017TC46); assay: absorption of purified holoprotein, acid denaturation, CD; assay type: binding; details: covalent adduct; coexpressed in E. coli with HO POZ53545 and CAP_1520; 25 °C
T2 construct: coexpressed in E. coli with bilin biosynthesis plasmid
T2 sequence (A0A017TC46 1-259): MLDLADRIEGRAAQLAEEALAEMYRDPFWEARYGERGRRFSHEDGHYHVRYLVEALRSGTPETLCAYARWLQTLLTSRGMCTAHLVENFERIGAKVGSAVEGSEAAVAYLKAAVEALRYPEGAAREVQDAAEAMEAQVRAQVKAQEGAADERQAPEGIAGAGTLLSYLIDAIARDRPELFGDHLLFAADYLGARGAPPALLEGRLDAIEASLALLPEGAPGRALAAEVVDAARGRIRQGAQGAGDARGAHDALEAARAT

POZ53552 (BBAG-1) [1] = target: T3, POZ53552 (BBAG-1) (Methylovulum psychrotolerans, UniProt A0A2S5CS40); assay: absorption of purified holoprotein; assay type: binding; details: covalent (CXRD motif); coexpressed with HO POZ53545 alone (Spam-545xc); poor chromophorylation
T3 construct: gene AADEFJLK_00580; synthetic gene in pET28 (pET28-RcaE backbone); coexpressed in E. coli with bilin biosynthesis plasmid; CXRD motif
T3 sequence (A0A2S5CS40 1-198): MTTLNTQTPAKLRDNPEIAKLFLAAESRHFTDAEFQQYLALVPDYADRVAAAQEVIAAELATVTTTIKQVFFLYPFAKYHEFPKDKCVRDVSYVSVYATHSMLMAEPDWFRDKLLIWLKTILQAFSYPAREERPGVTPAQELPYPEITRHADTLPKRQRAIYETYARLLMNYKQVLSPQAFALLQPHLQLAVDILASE

POZ53552 (BBAG-1) [2] = target: T3, POZ53552 (BBAG-1); assay: absorption of purified holoprotein, acid denaturation; assay type: binding; details: covalent (CXRD motif)
Cph1 (N514 truncation) = target: T4, Cph1 (N514 truncation) (Synechocystis sp. PCC 6803, UniProt Q55168); assay: absorption, photoconversion, acid denaturation; assay type: binding; details: covalent adduct
T4 construct: N514 truncation construct sufficient for photoconversion, His-tagged, E. coli
T4 sequence (Q55168 1-514): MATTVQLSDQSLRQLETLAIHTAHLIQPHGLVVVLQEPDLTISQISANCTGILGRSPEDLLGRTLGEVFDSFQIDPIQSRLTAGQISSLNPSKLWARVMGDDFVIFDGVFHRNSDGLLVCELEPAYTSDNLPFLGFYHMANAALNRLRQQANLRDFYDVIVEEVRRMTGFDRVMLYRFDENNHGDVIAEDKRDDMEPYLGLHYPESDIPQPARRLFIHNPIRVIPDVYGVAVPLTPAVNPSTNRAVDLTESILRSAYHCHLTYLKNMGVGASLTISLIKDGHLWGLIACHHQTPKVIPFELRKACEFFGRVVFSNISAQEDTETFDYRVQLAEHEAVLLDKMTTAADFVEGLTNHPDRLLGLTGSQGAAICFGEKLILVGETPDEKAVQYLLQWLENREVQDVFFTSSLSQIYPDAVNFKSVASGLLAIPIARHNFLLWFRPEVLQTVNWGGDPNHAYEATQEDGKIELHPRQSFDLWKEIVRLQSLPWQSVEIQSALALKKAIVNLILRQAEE

## C=CC1=C(C)C(=Cc2[nH]c(C=C3N=C(C=C4NC(=O)C(C)=C4C=C)C(C)=C3CCC(=O)O)c(CCC(=O)O)c2C)NC1=O [BV]
POZ53557 (pre-1 FDBR)
  coexpression in E. coli with HO and Cph1 reporter; bilin identified on reporter: POZ53557 appears to carry out inefficient reduction of BV to PΦB
CAP_1521 (BBAG-2)
  absorption of purified holoprotein, acid denaturation, CD: Acid denaturation demonstrated that both possessed BV adducts rather than PΦB adducts
POZ53552 (BBAG-1) [1]
  absorption of purified holoprotein: POZ53545 with no FDBR (synthesizing BV; plasmid Spam-545xc

## C=CC1=C(C)C(CC2=NC(=Cc3[nH]c(C=C4NC(=O)C(C)C4=CC)c(C)c3CCC(=O)O)C(CCC(=O)O)=C2C)NC1=O (stereo not shown) [PEB]
POZ53552 (BBAG-1) [2]; coexpressed with Spam-545/8304, mixture of PΦB and PEB adducts
  absorption of purified holoprotein, acid denaturation: Denaturation analysis confirmed that these peaks reflected a mixture of PΦB and PEB
Cph1 (N514 truncation); coexpressed with Spam-545/8304, photoinactive population of mixed preparation
  absorption, photoconversion, acid denaturation: The photoinactive pink population was consistent with the known properties of the PEB adduct

## C=CC1=C(C)C(=CC2=NC(=Cc3[nH]c(C=C4NC(=O)C(C)C4=CC)c(C)c3CCC(=O)O)C(CCC(=O)O)=C2C)NC1=O (stereo not shown) [PΦB]
POZ53552 (BBAG-1) [2]; coexpressed with Spam-545/CAP, poor chromophorylation
  absorption of purified holoprotein, acid denaturation: BBAG-1 POZ53552 incorporated PΦB when coexpressed with Spam-545/CAP
Cph1 (N514 truncation); coexpressed with Spam-545/CAP
  absorption, photoconversion, acid denaturation: confirmed that this preparation contained a PΦB chromophore
